{"source": "patent US20240199693A1", "about": "“HE[…] FOR USE IN THE TREATMENT OF HMGB1-DEPENDENT DISEASES” (priority 2021, published 2024)", "format_in_all_cases": "in vivo", "key": {"[1]": {"test_system": "HMGB1", "experiment": "Mouse model of acute lung injury induced by intratracheal LPS; HMGB1 in bronchoalveolar fluid by ELISA", "settings": "C57Bl/6 male mice, BALF after 48 hours, mean±SEM (n=6)", "procedure": "This example illustrates efficacy of compounds of the invention in the inhibition of HMGB1 secretion.\nCompounds of the invention were tested in a mouse model of acute lung injury induced by intratracheal administration of lipopolysaccharide (LPS) as described, for instance, in D'Alessio F R. Mouse Models of Acute Lung Injury and ARDS. Methods Mol Biol. 2018, 1809:341-350. C57BI/6 male mice were randomized into eight groups of 6 animals each. Mice were treated intratracheally with 1 μg/mouse of α-Galactosyl Ceramide (α-GalCer, KRN7000, Sigma-Aldrich) and after 24 hours with LPS (E. coli; 1 mg/mouse) and 10 μL/mouse Freund's complete adjuvant. Then, mice received by inhalation 50 μL saline (control); 10, 100, or 250 μg/kg of H-Tyr-D-Ala-Gly-Phe-Leu-Arg-Arg-NH2; 100 μg/kg of H-Tyr-D-Ala-Gly-Phe-Leu-Arg-Arg-NHC2H5; 100 μg/kg of H-Tyr-D-Ala-Gly-Phe-Leu-Arg-Arg-NHC4H9; 100 μg/kg of H-Tyr-D-Ala-Gly-Phe-Leu-Arg-Arg-N(CH3)2; 10 μg/kg H-Tyr-D-Ala-Gly-Phe-Leu-Arg-Arg-OH (Chavkin C et al. 1981); or 250 μg/kg of [D-Ala^2, D-Leu^5]-enkephalin as solutions in 50 μL. saline. After 48 hours, HMGB1 concentrations were measured in bronchoalveolar fluid (BALF) with commercially available ELISA kit for HMGB1 (SEA3999Mu, Cloud-Clone corp.). Results are presented in Tables 1 as mean±SEM (n=6) of HMGB1 levels in BALF, in % of control."}, "[2]": {"test_system": "HMGB1", "experiment": "Mouse model of antigen-induced arthritis (mBSA); knee swelling and HMGB1 in synovial lavage fluid by ELISA", "settings": "C3H/He male mice, 0.14 mg/kg s.c. once-a-day for 5 days, 25th day, mean±SEM (n=6)", "procedure": "(§1) This example illustrates that compound (I) is useful for treating arthritis, the HMGB1-dependent disease.\nAn efficacy of H-Tyr-D-Ala-Gly-Phe-Leu-Arg-Arg-NH2 acetate was tested in a mouse model of antigen-induced arthritis induced by methylated bovine serum albumin (mBSA), as described in Brackertz et al., Arthritis Rheum. 1977, 20(3):841-50; Staite et al., Agents and Actions 1989, 27(3/4):338-40. Briefly, male C3H/He mice 8-10 weeks of age were randomized into two groups of 6 animals each. Immunization: the mice were immunized 2 times (on the 0th and 7th days) with s.c. injections of mBSA (50 mg/kg, Sigma-Aldrich) emulsified in 20 μL Freund's complete adjuvant and on the 21st day received intra-articular injection of mBSA (50 mg/kg) in 20 μL saline in the right hind knee as a booster immunization. […] Treatment: the mice received s.c. injections either 0.1 ml saline (control, n=6) or 0.14 mg/kg H-Tyr-D-Ala-Gly-Phe-Leu-Arg-Arg-NH2 acetate in 0.1 ml saline (n=6), once-a-day for 5 consecutive days, beginning 30 min after the booster immunization. The disease course was quantified by assessment of the swelling of the arthritic knee joint on 25th day. HMGB1 levels (pg/ml) in the synovial lavage fluids of the arthritic joint on 25th day was measured using ELISA (SEA3999Mu, Cloud-Clone corp.). […]"}, "[3]": {"test_system": "HMGB1", "experiment": "Mouse model of rheumatoid arthritis (type II collagen-induced); serum HMGB1 by ELISA and arthritis incidence", "settings": "BALB/c male mice", "procedure": "as §1\nAn efficacy of the compound of the invention was tested in a mouse model of rheumatoid arthritis, as described in Brand et al., Nat Protoc. 2007, 2(5):1269-75. Male BALB/c mice were randomized into two groups of 5 animals each. Arthritis was induced in using an intradermal injection of cold emulsion (0.05 ml) prepared by emulsifying chicken type II collagen (CII) solution in acetic acid with complete Freund's adjuvant (CFA) into the base of the tail. Three weeks later, the mice were administered by a second injection in the same manner. Following the booster immunization, mice received 50 μL saline i.p. (control) or 100 μg/kg H-Tyr-D-Ala-Gly-Phe-Leu-Arg-Arg-NH2 in 50 μL saline i.p., once-a-day, for two weeks. The serum level of HMGB1 was determined on day 35 with commercially available ELISA kit for HMGB1 (SEA3999Mu, Cloud-Clone corp.). The clinical severity of arthritis in each paw was quantified according to a graded scale from 0 to 4, as described in Brand et al., Nat Protoc. 2007, 2(5):1269-75. Results are presented in Table 2 as and mean±SEM (n=5) of HMGB1 levels in serum in % of control and arthritis incidence."}}, "note": "Square brackets hold non-standard residues; d marks the D form. Ends that are not written are not given here."}
{"substance": "H-Tyr-D-Ala-Gly-Phe-Leu-Arg-Arg-N(CH3)2 acetate (H-Y[dA]GFLRR-NMe2; also: acetate salt) [heptapeptide dimethylamide of formula (I)]", "values": [{"measurement": "HMGB1 in BALF, % of control", "setting": "[1]; 100 μg/kg by inhalation", "value": "42.3 ± 5.9", "unit": "%"}]}
{"substance": "H-Tyr-D-Ala-Gly-Phe-Leu-Arg-Arg-NHC2H5 acetate (H-Y[dA]GFLRR-NHEt; also: acetate salt) [heptapeptide ethylamide of formula (I)]", "values": [{"measurement": "HMGB1 in BALF, % of control", "setting": "[1]; 100 μg/kg by inhalation", "value": "35.2 ± 7.2", "unit": "%"}]}
{"substance": "H-Tyr-D-Ala-Gly-Phe-Leu-Arg-Arg-NHC4H9 acetate (H-Y[dA]GFLRR-NHC4H9; also: acetate salt) [heptapeptide butylamide of formula (I)]", "values": [{"measurement": "HMGB1 in BALF, % of control", "setting": "[1]; 100 μg/kg by inhalation", "value": "40.1 ± 5.0", "unit": "%"}]}
{"substance": "H-Tyr-D-Ala-Gly-Phe-Leu-Arg-Arg-OH (H-Y[dA]GFLRR-OH; also: acetate salt) [modified [D-Ala^2]-dynorphin (1-7) described by Chavkin C et al. 1981; structurally similar comparison peptide, reference compound]", "values": [{"measurement": "HMGB1 in BALF, % of control", "setting": "[1]; 10 μg/kg by inhalation", "value": "88.67 ± 10.5", "unit": "%"}]}
{"substance": "L-tyrosyl-D-alanyl-L-glycyl-L-phenylala nyl-L-leucyl-L-arginyl-L-arginine amide acetate (Y[dA]GFLRR-NH2; also: acetate salt) [heptapeptide amide of formula (I), Z = NH2]", "values": [{"measurement": "HMGB1 in BALF, % of control", "setting": "[1]; 100 μg/kg by inhalation", "value": "31.8 ± 12.4", "unit": "%"}, {"measurement": "HMGB1 in BALF, % of control", "setting": "[1]; 250 μg/kg by inhalation", "value": "34.2 ± 8.0", "unit": "%"}, {"measurement": "HMGB1 in synovial lavage fluid of the arthritic joint", "setting": "[2]", "value": "119 ± 38", "unit": "pg/mL"}, {"measurement": "Knee joint circumference", "setting": "[2]", "value": "1.32 ± 0.04", "unit": "cm"}, {"measurement": "Arthritis incidence", "setting": "[3]; 100 μg/kg i.p. once-a-day for two weeks (n=5)", "value": 20, "unit": "%"}, {"measurement": "HMGB1 in serum, % of control", "setting": "[3]; 100 μg/kg i.p. once-a-day for two weeks, day 35, mean±SEM (n=5)", "value": "21.5 ± 5.9", "unit": "%"}]}
